Literature values in publication PMC4415995 (Advances in Therapy, 2015).

system: patients with T2DM; conditions: cited from earlier work

| Compound | maximal UGE [g] |
| --- | --- |
| OC[C@H]1O[C@@H](c2ccc(Cl)c(Cc3ccc(O[C@H]4CCOC4)cc3)c2)[C@H](O)[C@@H](O)[C@@H]1O [empagliflozin] | 85 to 100 |
| CCOc1ccc(Cc2cc([C@@H]3O[C@H](CO)[C@@H](O)[C@H](O)[C@H]3O)ccc2Cl)cc1 [dapagliflozin] | 85 to 100 |
| Cc1ccc([C@@H]2O[C@H](CO)[C@@H](O)[C@H](O)[C@H]2O)cc1Cc1ccc(-c2ccc(F)cc2)s1 [canagliflozin] | 85 to 100 |
| OC[C@H]1O[C@@H](c2ccc(F)c(Cc3cc4ccccc4s3)c2)[C@H](O)[C@@H](O)[C@@H]1O [ipragliflozin] | 85 to 100 |
